These results are taken from patent US11234971B2, “Methods of treating cancer comprising administration of a glucocorticoid receptor modulator and a cancer chemotherapy agent” (Corcept Therapeutics Incorporated, priority 2018, dated 2022).

SMILES strings stand for the structures.

The target of assay [1] is androgen receptor (Homo sapiens, UniProt P10275). The conditions noted are these: cited from earlier work.
Assay [2] deals with progesterone receptor (Homo sapiens, UniProt P06401). The conditions noted are these: cited from earlier work.
progesterone receptor, sequence (P06401 whole entry, species assumed): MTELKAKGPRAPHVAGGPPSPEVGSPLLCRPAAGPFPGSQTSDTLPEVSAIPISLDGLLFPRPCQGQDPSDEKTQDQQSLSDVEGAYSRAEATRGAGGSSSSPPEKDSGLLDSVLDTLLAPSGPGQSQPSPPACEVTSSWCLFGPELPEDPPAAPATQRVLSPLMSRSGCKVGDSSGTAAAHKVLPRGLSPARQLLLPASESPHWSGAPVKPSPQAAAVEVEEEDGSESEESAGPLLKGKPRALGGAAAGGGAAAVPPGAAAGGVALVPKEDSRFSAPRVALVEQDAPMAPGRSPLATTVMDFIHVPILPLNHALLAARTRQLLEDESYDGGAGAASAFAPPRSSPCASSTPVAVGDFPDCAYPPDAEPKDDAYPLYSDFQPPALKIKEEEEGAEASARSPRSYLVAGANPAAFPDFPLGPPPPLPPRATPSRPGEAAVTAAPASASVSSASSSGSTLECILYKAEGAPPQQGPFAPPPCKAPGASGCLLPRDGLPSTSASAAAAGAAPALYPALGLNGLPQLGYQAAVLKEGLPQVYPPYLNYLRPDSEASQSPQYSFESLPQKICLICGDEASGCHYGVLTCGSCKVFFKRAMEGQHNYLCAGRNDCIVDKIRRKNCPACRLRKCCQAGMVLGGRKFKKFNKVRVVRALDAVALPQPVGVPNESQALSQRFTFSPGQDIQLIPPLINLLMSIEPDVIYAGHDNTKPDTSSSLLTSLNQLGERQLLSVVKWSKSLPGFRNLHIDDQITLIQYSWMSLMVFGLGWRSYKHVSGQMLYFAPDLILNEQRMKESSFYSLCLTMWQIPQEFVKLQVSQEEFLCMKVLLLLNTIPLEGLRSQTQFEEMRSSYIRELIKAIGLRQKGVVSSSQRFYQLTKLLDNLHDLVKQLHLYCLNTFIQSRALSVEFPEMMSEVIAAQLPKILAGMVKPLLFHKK
Assay [3] concerns GR-controlled genes. Put plainly: Whole blood mRNA expression (NanoString) in cancer patients of study NCT02762981, baseline vs C1D15. In kind it is in vivo, human. The conditions noted are these: for expression levels of COX2, DUSP1, GSK3b, MCL-1, PIK3CG and RGS-2 (mRNA): 40 cancer patients (FIG. 5B); for genes downregulated in whole blood, baseline to C1D15: 800-gene panel, relacorilant+nab-paclitaxel; for enrichment of genes shared in the sets induced by prednisone and suppressed by relacorilant / genes shared in the sets induced by prednisone and suppressed by relacorilant: top 200 genes each. On the procedure: Blood was collected at baseline, prior to administration of relacorilant or nab-paclitaxel. Blood was also drawn in the morning, pre-dose, on cycle 1, day 15. Blood (in the amount of 2.5 milliLiters (mL)) was drawn into a PAXGene blood RNA tube (Qiagen) using a butterfly needle. The tube was sealed and gently inverted 10 times. The tube was frozen in dry ice and stored at −80° C. until RNA extraction.
Paired baseline and cycle 1, day 15 (C1D15) specimens were thawed and processed in the same batch. RNA was isolated using the PAXgene Blood RNA kit (Qiagen) using the protocol recommended by the manufacturer. RNA yield was quantified using a NanoDrop ND-2000 spectrophotometer (ThermoFisher Scientific). RNA was assessed using a custom 33-gene panel after mRNA sample preparation and hybridization using NanoString nCounter XT Assay, following the operation and maintenance instructions for the NanoString prep station and digital analyzer. Specific RNA transcripts were quantified using a Nanostring nCounter FLEX instrument (NanoString Technologies) and analyzed using nSolver 3.0. (Nanostring Technologies, Seattle Wash., USA).
Housekeeping gene pairwise correlations were determined using nSolver 3.0 (NanoString Technologies). Test genes were normalized to the housekeeping genes HPRT1, PPIB, TRAP1, EEF1A1, and TBP. Change from baseline was calculated using the RNA counts at baseline and cycle 1, day 15 as follows: Change from Baseline=(C1D15−baseline)/(baseline) Results Housekeeping Genes Selection
Calculations For FIG. 6, the normalized counts of 10 GR-controlled genes were averaged. Change from baseline of these averaged values was calculated per patient using the formula: Percent change from baseline=((average value at C1D15)−(average value at baseline))/(average value at baseline)*100Gene set enrichment statistics were calculated using the program available at the URL: Nemates.org/MA/progs/overlap_stats_prog.html
RNA isolation and quantification RNA was assessed using a custom 800-gene panel after mRNA sample preparation and hybridization using NanoString nCounter Assay, following the operation and maintenance instructions for the NanoString prep station and digital analyzer. The 800 gene panel was comprised of the Nanostring 10360™ panel plus the following 10 custom probes:
Data normalization and analysis Housekeeping gene pairwise correlations were determined using advanced analysis in nSolver 3.0 (NanoString Technologies). Test genes were normalized to the housekeeping genes selected by geNORM. […]

Assay [4] deals with T1, glucocorticoid receptor (Homo sapiens, UniProt P04150).
T1 sequence (P04150 1-777): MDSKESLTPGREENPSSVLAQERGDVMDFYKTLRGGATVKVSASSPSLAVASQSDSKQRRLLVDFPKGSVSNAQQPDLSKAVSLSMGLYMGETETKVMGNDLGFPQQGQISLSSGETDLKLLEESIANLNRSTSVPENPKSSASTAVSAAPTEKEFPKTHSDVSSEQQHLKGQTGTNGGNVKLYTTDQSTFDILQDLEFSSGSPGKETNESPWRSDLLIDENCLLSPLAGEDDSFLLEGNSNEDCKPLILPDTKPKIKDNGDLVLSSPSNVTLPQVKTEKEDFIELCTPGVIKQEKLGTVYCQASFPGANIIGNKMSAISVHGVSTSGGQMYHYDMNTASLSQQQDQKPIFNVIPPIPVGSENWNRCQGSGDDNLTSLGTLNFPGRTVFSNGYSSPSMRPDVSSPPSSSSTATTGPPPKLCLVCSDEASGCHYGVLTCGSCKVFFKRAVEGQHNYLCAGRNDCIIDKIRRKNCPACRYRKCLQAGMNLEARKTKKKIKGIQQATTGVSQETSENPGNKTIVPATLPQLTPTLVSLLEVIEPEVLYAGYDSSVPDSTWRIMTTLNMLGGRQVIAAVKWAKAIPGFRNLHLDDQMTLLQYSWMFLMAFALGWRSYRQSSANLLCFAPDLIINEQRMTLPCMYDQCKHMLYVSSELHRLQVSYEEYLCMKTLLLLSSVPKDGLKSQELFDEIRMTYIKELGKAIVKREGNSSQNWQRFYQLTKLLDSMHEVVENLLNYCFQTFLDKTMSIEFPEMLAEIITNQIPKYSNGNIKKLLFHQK
The note with it: cited from earlier work.

Setting [5] is: patients with progressive disease.

androgen receptor, sequence (P10275 whole entry, species assumed): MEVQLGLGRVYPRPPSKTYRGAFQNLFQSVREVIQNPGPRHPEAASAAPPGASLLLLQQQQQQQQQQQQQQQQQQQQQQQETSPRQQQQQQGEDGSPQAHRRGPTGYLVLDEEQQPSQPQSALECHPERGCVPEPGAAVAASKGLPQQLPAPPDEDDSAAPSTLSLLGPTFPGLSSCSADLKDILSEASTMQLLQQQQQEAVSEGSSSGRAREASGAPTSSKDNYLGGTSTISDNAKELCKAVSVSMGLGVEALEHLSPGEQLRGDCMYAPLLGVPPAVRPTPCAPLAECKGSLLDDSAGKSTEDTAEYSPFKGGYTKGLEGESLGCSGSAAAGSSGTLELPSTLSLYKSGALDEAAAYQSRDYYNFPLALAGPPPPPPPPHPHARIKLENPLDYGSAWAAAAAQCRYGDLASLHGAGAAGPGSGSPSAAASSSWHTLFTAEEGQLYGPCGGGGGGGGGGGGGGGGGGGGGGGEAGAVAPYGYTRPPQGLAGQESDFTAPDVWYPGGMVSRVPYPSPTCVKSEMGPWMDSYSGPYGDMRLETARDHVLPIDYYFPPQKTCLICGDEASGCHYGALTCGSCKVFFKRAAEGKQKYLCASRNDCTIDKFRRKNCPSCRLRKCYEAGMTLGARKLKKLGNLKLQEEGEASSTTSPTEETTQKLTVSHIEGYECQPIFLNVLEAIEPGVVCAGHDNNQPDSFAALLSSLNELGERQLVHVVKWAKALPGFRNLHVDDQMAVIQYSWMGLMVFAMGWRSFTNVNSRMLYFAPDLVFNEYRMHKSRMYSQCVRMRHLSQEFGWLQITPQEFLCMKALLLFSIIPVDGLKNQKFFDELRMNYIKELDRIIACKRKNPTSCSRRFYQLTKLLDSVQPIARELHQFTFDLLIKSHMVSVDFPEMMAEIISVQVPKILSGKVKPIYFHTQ

On to `Cn1cc(S(=O)(=O)N2CCC3=Cc4c(cnn4-c4ccc(F)cc4)C[C@]3(C(=O)c3cc(C(F)(F)F)ccn3)C2)cn1` [relacorilant, (R)-(1-(4-fluorophenyl)-6-((1-methyl-1H-pyrazol-4-yl)sulfonyl)-4,4a,5,6,7,8-hexahydro-1H-pyrazolo[3,4-g]isoquinolin-4a-yl)(4-(trifluoromethyl)pyridin-2-yl)methanone], for which the Ki in assay [1] and in assay [2] was more than 10 µM each time. Further, the “expression levels of COX2, DUSP1, GSK3b, MCL-1, PIK3CG, RGS-2, SGK1 and STAT3 (mRNA)” value in assay [3] (21 cancer patients (FIG. 5A), patients who derived benefit from relacorilant+nab-paclitaxel) is “decreased as compared to baseline”. In addition, the “expression levels of COX2, DUSP1, GSK3b, MCL-1, PIK3CG, RGS-2, SGK1 (mRNA)” value in assay [3] (21 cancer patients (FIG. 5A), patients whose cancer progressed) was “did not exhibit decreased levels”. The “expression levels of COX2, DUSP1, GSK3b, MCL-1, PIK3CG and RGS-2 (mRNA)” value is “decreased as compared to baseline” in assay [3] (patients who derived benefit from relacorilant+nab-paclitaxel) and “did not exhibit decreased levels” in assay [3] (patients whose cancer progressed). Further, the results for the “genes downregulated in whole blood, baseline to C1D15” value in assay [3] (PD patients) and in assay [3] (SD/PR/CR patients) were 30 genes and 92 genes, respectively. The “normalized DUSP1 mRNA counts, baseline vs cycle 1 day 15” value in assay [3] (all patients, relacorilant + nab-paclitaxel, paired t-test p=0.065) is “not significantly different”; in assay [3] (patients experiencing benefit (SD, PR, CR), relacorilant + nab-paclitaxel, paired t-test p=0.015), “significant decrease”. The “decrease in DUSP1 counts, baseline vs cycle 1 day 15” value in assay [3] (patients with progressive disease, relacorilant + nab-paclitaxel) is listed as “not observed”. For the same molecule, the “enrichment of genes shared in the sets induced by prednisone and suppressed by relacorilant” value is reported as 2.2 fold in assay [3] (patients who benefited) and 0.7 fold in assay [3] (setting [5]). The “genes shared in the sets induced by prednisone and suppressed by relacorilant” value in assay [3] (patients who benefited, p=3×10^−30) turned out to be 116 genes; in assay [3] (setting [5]), 38 genes. Besides, the “binding to the glucocorticoid receptor” value in assay [4] was “potently binds”.

The Ki is a measure of affinity in units of concentration, obtained from inhibition or displacement.
